Measurements reported in patent publication US9321762B2, “Quinazoline compounds, method for preparing the same and use thereof” (DEVELOPMENT CENTER FOR BIOTECHNOLOGY, priority 2013, dated 2016).

Each molecule was assayed against T1, B-Raf kinase (Homo sapiens, UniProt P15056) (assay: B-Raf kinase assay ([33P] incorporation into MEK1(K97R))). Conditions: class symbols; 8 μM ATP; read-out: IC50 against B-Raf kinase.
T1 construct: purchased Upstate Biotechnology
Type: biochemical
Protocol: Inhibition of kinase activity by a test compound disclosed herein was estimated by quantifying the amount of [^33P] incorporation of a substrate in the presence of the test compound. Standard assay conditions were 5 ng of recombinant B-Raf kinase (Upstate Biotechnology) with 500 ng MEK1(K97R) in assay buffer (8 μM ATP, 0.5 μCi [^33P]ATP (specific activity 3000 Ci/mmol, PerkinElmer), 50 mM Tris/HCl (pH7.5), and 1 mM EGTA, 1 mM Na3VO4, 1% 2-mercaptoethanol, 0.1% Brij 35, and 0.2 mg/ml BSA) in a final volume of 25 μL. Reactions were incubated at 30° C. for 30 min and stopped by adding 3% phosphoric acid, harvested onto a 96-well GF/B UniFilter (PerkinElmer) using a unifilter harvester (PerkinElmer), and counted with a TopCount microplate scintillation counter (PerkinElmer). The IC50 values of inhibitors were determined after carrying out assays at 3-fold serially diluted concentrations of each compound in duplication. The results were analyzed using linear regression software (GraphPad Prism 4; GraphPad Software Inc.).

T1 sequence (P15056 whole entry): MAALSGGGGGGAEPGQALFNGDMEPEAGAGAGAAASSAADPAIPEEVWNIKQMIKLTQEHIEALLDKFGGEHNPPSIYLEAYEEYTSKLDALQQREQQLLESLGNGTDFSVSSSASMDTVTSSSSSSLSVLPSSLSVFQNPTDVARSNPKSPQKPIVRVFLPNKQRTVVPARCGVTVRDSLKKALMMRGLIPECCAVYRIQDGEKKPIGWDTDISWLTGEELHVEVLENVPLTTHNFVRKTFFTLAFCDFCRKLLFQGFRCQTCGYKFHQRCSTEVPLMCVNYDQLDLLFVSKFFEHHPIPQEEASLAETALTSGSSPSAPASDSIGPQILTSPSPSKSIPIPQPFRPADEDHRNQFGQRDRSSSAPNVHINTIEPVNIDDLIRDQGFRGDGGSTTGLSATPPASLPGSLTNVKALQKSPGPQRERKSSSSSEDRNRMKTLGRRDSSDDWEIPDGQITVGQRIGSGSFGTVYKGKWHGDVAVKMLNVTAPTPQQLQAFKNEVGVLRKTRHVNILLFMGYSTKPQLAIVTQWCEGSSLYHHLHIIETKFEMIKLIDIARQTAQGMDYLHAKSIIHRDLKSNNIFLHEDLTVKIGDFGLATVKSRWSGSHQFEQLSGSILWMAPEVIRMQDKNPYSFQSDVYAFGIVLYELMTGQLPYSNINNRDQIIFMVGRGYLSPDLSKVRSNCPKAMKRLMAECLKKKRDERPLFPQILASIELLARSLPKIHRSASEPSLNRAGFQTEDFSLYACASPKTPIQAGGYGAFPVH

Row | IC50 | SMILES
1 | 1000 to 10000 nM | CCCS(=O)(=O)Nc1ccc(F)c(Nc2ncnc3ccc(-c4cccnc4F)cc23)c1 [compound 6, N-(4-fluoro-3-(6-(2-fluoropyridin-3-yl)-quinazolin-4-ylamino)phenyl)propane-1-sulfonamide]
2 | 1000 to 10000 nM | CS(=O)(=O)Nc1ccc(F)c(Nc2ncnc3ccc(-c4cccnc4F)cc23)c1F [compound 10, N-(2,4-difluoro-3-(6-(2-fluoropyridin-3-yl)quinazolin-4-ylamino)phenyl)methanesulfonamide]
3 | 1000 to 10000 nM | CCCS(=O)(=O)Nc1c(F)ccc(Nc2ncnc3ccc(-c4ccncc4)cc23)c1F [compound 17, N-(2,6-difluoro-3-(6-(pyridin-4-yl)quinazolin-4-ylamino)phenyl)propane-1-sulfonamide]
4 | 1000 to 10000 nM | CCS(=O)(=O)Nc1ccc(F)c(Nc2ncnc3ccc(-c4cccnc4F)cc23)c1F [compound 19, N-(2,4-difluoro-3-(6-(2-fluoropyridin-3-yl)quinazolin-4-ylamino)phenyl)ethanesulfonamide]
5 | 1000 to 10000 nM | CC(C)S(=O)(=O)Nc1ccc(F)c(Nc2ncnc3ccc(-c4cccnc4F)cc23)c1F [compound 20, N-(2,4-difluoro-3-(6-(2-fluoropyridin-3-yl)quinazolin-4-ylamino)phenyl)propane-2-sulfonamide]
6 | 1000 to 10000 nM | CCCS(=O)(=O)Nc1ccc(F)c(Nc2ncnc3ccc(-c4cccnc4OC)cc23)c1F [compound 23, N-(2,4-difluoro-3-(6-(2-methoxypyridin-3-yl)quinazolin-4-ylamino)phenyl)propane-1-sulfonamide]
7 | 1000 to 10000 nM | CCCS(=O)(=O)Nc1ccc(F)c(Nc2ncnc3ccc(-c4ccc[nH]c4=O)cc23)c1F [compound 26, N-(2,4-difluoro-3-(6-(2-oxo-1,2-dihydropyridin-3-yl)quinazolin-4-ylamino)phenyl)propane-1-sulfonamide]
8 | 1000 to 10000 nM | CCCS(=O)(=O)Nc1ccc(F)c(Nc2ncnc3cc(OC)c(-c4ccncc4)cc23)c1F [compound 30, N-(2,4-difluoro-3-(7-methoxy-6-(pyridin-4-yl)quinazolin-4-ylamino)phenyl)propane-1-sulfonamide]
9 | 300 to 1000 nM | CCCS(=O)(=O)Nc1ccc(F)c(Nc2ncnc3ccc(-c4ccc(OCCOC)nc4)cc23)c1F [compound 33, N-(2,4-difluoro-3-(6-(6-(2-methoxyethoxy)pyridin-3-yl)quinazolin-4-ylamino)phenyl)propane-1-sulfonamide]
10 | 300 to 1000 nM | CCCS(=O)(=O)Nc1ccc(F)c(Oc2ncnc3ccc(-c4cccnc4F)cc23)c1F [compound 34, N-(2,4-difluoro-3-(6-(2-fluoropyridin-3-yl)-quinazolin-4-yloxy)phenyl)propane-1-sulfonamide]
11 | 300 to 1000 nM | CCCS(=O)(=O)Nc1ccc(F)c(Nc2ncnc3ccc(-c4cccc(N5CCOCC5)n4)cc23)c1F [compound 41, N-(2,4-difluoro-3-(6-(6-morpholinopyridin-2-yl)quinazolin-4-ylamino)phenyl)propane-1-sulfonamide]
12 | 1000 to 10000 nM | CCCS(=O)(=O)Nc1ccc(F)c(Nc2ncnc3ccc(N4CCOCC4)cc23)c1F [compound 42, N-(2,4-difluoro-3-(6-morpholinoquinazolin-4-ylamino)phenyl)propane-1-sulfonamide]
13 | 1000 to 10000 nM | CCCS(=O)(=O)Nc1ccc(F)c(Nc2ncnc3ccc(-n4ccnc4)cc23)c1F [compound 43, N-(3-(6-(1H-imidazol-1-yl)quinazolin-4-ylamino)-2,4-difluorophenyl)propane-1-sulfonamide]
14 | 1000 to 10000 nM | C#Cc1ccc2ncnc(Nc3c(F)ccc(NS(=O)(=O)CCC)c3F)c2c1 [compound 49, N-(3-(6-ethynylquinazolin-4-ylamino)-2,4-difluorophenyl)propane-1-sulfonamide]
15 | 300 to 1000 nM | CCCS(=O)(=O)N(C)c1ccc(F)c(N(C)c2ncnc3ccc(-c4cccnc4F)cc23)c1F [compound 53, N-(2,4-difluoro-3-((6-(2-fluoropyridin-3-yl)-quinazolin-4-yl)(methyl)amino)phenyl)-N-methylpropane-1-sulfonamide]
16 | 300 to 1000 nM | CCCS(=O)(=O)Nc1ccc(F)c(Nc2ncnc3ccc(-c4cccnc4F)c(F)c23)c1F [compound 56, N-(2,4-difluoro-3-(5-fluoro-6-(2-fluoropyridin-3-yl)quinazolin-4-ylamino)phenyl)propane-1-sulfonamide]
17 | 300 to 1000 nM | CCCS(=O)(=O)Nc1ccc(F)c(Nc2ncnc3ccc(-c4cnc(OC)c(N)c4)cc23)c1F [compound 60, N-(3-(6-(5-amino-6-methoxypyridin-3-yl)quinazolin-4-ylamino)-2,4-difluorophenyl)propane-1-sulfonamide]
18 | 300 to 1000 nM | CCCS(=O)(=O)Nc1ccc(F)c(Nc2ncnc3ccc(-c4cccc(N)n4)cc23)c1F [compound 61, N-(3-(6-(6-aminopyridin-2-yl)quinazolin-4-ylamino)-2,4-difluorophenyl)propane-1-sulfonamide]
19 | 300 to 1000 nM | CCCS(=O)(=O)Nc1ccc(F)c(Nc2ncnc3ccc(-c4cccnc4C#N)cc23)c1F [compound 64, N-(3-(6-(2-cyanopyridin-3-yl)quinazolin-4-ylamino)-2,4-difluorophenyl)propane-1-sulfonamide]
20 | 300 to 1000 nM | CCCS(=O)(=O)Nc1ccc(F)c(Nc2ncnc3ccc(-c4cncc(C(F)(F)F)c4)cc23)c1F [compound 65, N-(2,4-difluoro-3-(6-(5-(trifluoromethyl)pyridin-3-yl)quinazolin-4-ylamino)phenyl)propane-1-sulfonamide]
21 | 300 to 1000 nM | CCCS(=O)(=O)Nc1ccc(F)c(Nc2ncnc3ccc(-c4cnc(N)c(C)c4)cc23)c1F [compound 67, N-(3-(6-(6-amino-5-methylpyridin-3-yl)quinazolin-4-ylamino)-2,4-difluorophenyl)propane-1-sulfonamide]

Same assay, conditions: given as bound; 8 μM ATP; read-out: IC50 against B-Raf kinase

Row | IC50 | SMILES
22 | > 10000 nM | CCCS(=O)(=O)Nc1ccc(F)c(Nc2ncnc3ccc(-c4cccnc4)cc23)c1F [compound 5, N-(2,4-difluoro-3-(6-(pyridin-3-yl)-quinazolin-4-ylamino)phenyl)propane-1-sulfonamide]
23 | > 10000 nM | CCCS(=O)(=O)Nc1cc(Nc2ncnc3ccc(-c4cccnc4F)cc23)c(F)cc1F [compound 11, N-(2,4-difluoro-5-(6-(2-fluoropyridin-3-yl)-quinazolin-4-ylamino)phenyl)propane-1-sulfonamide]
24 | > 10000 nM | CCCS(=O)(=O)Nc1c(F)ccc(Nc2ncnc3ccc(-c4cccnc4F)cc23)c1F [compound 16, N-(2,6-difluoro-3-(6-(2-fluoropyridin-3-yl)quinazolin-4-ylamino)phenyl)propane-1-sulfonamide]
25 | > 10000 nM | CCCS(=O)(=O)Nc1ccc(F)c(Nc2ncnc3cc(NCCN(C)C)c(-c4ccncc4)cc23)c1F [compound 22, N-(3-(7-(2-(dimethylamino)ethylamino)-6-(pyridin-4-yl)quinazolin-4-ylamino)-2,4-difluorophenyl)propane-1-sulfonamide]
26 | > 10000 nM | CCCS(=O)(=O)Oc1ccc(F)c(Nc2ncnc3ccc(-c4cccnc4F)cc23)c1F [compound 40, 2,4-difluoro-3-(6-(2-fluoropyridin-3-yl)quinazolin-4-ylamino)phenyl propane-1-sulfonate]
27 | > 10000 nM | CCCS(=O)(=O)Nc1ccc(F)c(Nc2ncnc3ccc(-n4cnc5ccccc54)cc23)c1F [compound 47, N-(3-(6-(1H-benzo[d]imidazol-1-yl)-quinazolin-4-ylamino)-2,4-difluorophenyl)propane-1-sulfonamide]
28 | > 10000 nM | CCCS(=O)(=O)Nc1ccc(F)c(Nc2ncnc3ccc(-c4c[nH]nn4)cc23)c1F [compound 52, N-(3-(6-(1H-1,2,3-triazol-4-yl)quinazolin-4-ylamino)-2,4-difluorophenyl)propane-1-sulfonamide]
29 | > 10000 nM | O=S1(=O)CCCN1c1ccc(F)c(Nc2ncnc3ccc(-c4cccnc4F)cc23)c1F [compound 55, N-(2,4-difluoro-3-(6-(2-fluoropyridin-3-yl)quinazolin-4-ylamino)phenyl)propanesultam]
